Results taken from US4159373A, “7-Acyl-3-(sulfonic acid and sulfamoyl substituted tetrazolyl thiomethyl) cephalosporins” (SmithKline Corporation, priority 1978, dated 1979).
In brackets after ≈: the same amount, converted by molar mass. Like-named read-outs stand apart in the source and are kept apart here.

How the values were obtained:
[1] = tested on: Entero. cloacae HH 31254; assay: MIC in vitro; format: cell-based; details: Enterobacter cloacae
[2] = tested on: Psuedo. sp. HH 63; assay: MIC in vitro; format: cell-based, Pseudo. aeruginosa
Procedure: (§1) The compounds of Formula I have exceptional antibacterial activity against both Gram-positive and Gram-negative organisms. Minimum inhibitory concentrations (MIC's) ranged from 0.2 to <200 μg./ml. in in vitro testing.

[3] = tested on: E. coli SK 12140; assay: MIC in vitro; format: cell-based
Procedure: as §1

[4] = tested on: S. villaluz; assay: MIC in vitro; format: cell-based; details: Table 1
Procedure: as §1

[5] = tested on: S. aureus SK 23390; assay: MIC in vitro; format: cell-based; details: Staphylococcus aureus, SK23390, Table 1; S. aureus SK 23390; read-out: MIC in vitro
Procedure: as §1

[6] = tested on: S. aureus HH 127; assay: MIC in vitro; format: cell-based; details: Staphylococcus aureus
Procedure: as §1

[7] = tested on: Proteus morgani 179; assay: MIC in vitro; format: cell-based
Procedure: as §1

[8] = tested on: E. coli HH 33779; assay: MIC in vitro; format: cell-based; details: Escherichia coli, HH33779, Table 1; E. coli HH 33779; read-out: MIC in vitro
Procedure: as §1

[9] = tested on: Salmonella ATCC 12176; assay: MIC in vitro; format: cell-based; details: Salmonella, ATCC12176, Table 1, read-out: MIC in vitro
Procedure: as §1

[10] = tested on: shigella HH 117; assay: MIC in vitro; format: cell-based; details: HH117; Table 1; shigella HH 117; read-out: MIC in vitro
Procedure: as §1

[11] = tested on: Strep. Faecalis HH 34358; assay: MIC in vitro; format: cell-based; details: Enterococcus faecalis
Procedure: as §1

[12] = tested on: Kleb. pneumo. 4200; assay: In vivo mouse protection, Kleb. pneumo. 4200; details: sc
[13] = tested on: Serra. marc ATCC 13880; assay: MIC in vitro; format: cell-based, Serratia marcescens; details: Serratia marcescens
Procedure: as §1

[14] = tested on: Kleb. pneumo. SK 4200; assay: MIC in vitro; format: cell-based, Kleb. pneumoniae; details: Klebsiella pneumoniae
Procedure: as §1

[15] = tested on: Kleb. pneumo. SK 1200; assay: MIC in vitro; format: cell-based, Kleb. pneumoniae; details: Klebsiella pneumoniae
Procedure: as §1

[16] = tested on: Entero. aerog. ATCC 13048; assay: MIC in vitro; format: cell-based, Enterobacter aerogenes; details: Klebsiella aerogenes
Procedure: as §1

[17] = tested on: E. coli 12140; assay: In vivo mouse protection, E. coli 12140
[18] = tested on: Pseudo. aeruginosa 647; assay: MIC in vitro; format: cell-based
[19] = tested on: Kleb. pneumoniae 982; assay: MIC in vitro; format: cell-based
[20] = tested on: Proteus mirabilis 444; assay: MIC in vitro; format: cell-based
[21] = tested on: Enterobacter cloacae 921; assay: MIC in vitro; format: cell-based
[22] = tested on: Staph. aureus 674; assay: MIC in vitro; format: cell-based
[23] = tested on: Staph. aureus 671; assay: MIC in vitro; format: cell-based
[24] = tested on: E. coli 804; assay: MIC in vitro; format: cell-based
[25] = Pseudomonas aeruginosa, Table 1, Psuedo. sp. HH 63, read-out: MIC in vitro
[26] = Escherichia coli, SK12140, Table 1, E. coli SK 12140, read-out: MIC in vitro
[27] = HH127, Table 1, S. aureus HH 127, read-out: MIC in vitro
[28] = Table 1, read-out: MIC in vitro
[29] = Table 1, Strep. Faecalis HH 34358, read-out: MIC in vitro
[30] = Table 2, Kleb. pneumo. 4200, s.c., read-out: ED50 in vivo
[31] = ATCC13880, Table 1, Serra. marc ATCC 13880, read-out: MIC in vitro
[32] = Table 1, Kleb. pneumo. SK 4200, read-out: MIC in vitro
[33] = ATCC13048, Table 1, Entero. aerog. ATCC 13048, read-out: MIC in vitro
[34] = Escherichia coli, 12140, po, Table 2, E. coli 12140, p.o., read-out: ED50 in vivo
[35] = Escherichia coli, 12140, sc, Table 2, E. coli 12140, s.c., read-out: ED50 in vivo
[36] = Table 1, Kleb. pneumo. SK 1200, read-out: MIC in vitro
[37] = Example 54 table, read-out: MIC

NS(=O)(=O)CCn1nnnc1SCC1=C(C(=O)O)N2C(=O)C(NC(=O)Cc3cccs3)[C@H]2SC1 (some centres unmarked) [VIII, 7-(2-thienylacetamido)-3-[1-(2-sulfamoylethyl)tetrazol-5-ylthiomethyl]-3-cephem-4-carboxylic acid]
MIC ([1]; HH31254, Table 1, read-out: MIC in vitro): 0.8 mg/L (≈ 1.47 µM)
MIC [2, 25]: > 200 mg/L
MIC [3, 26]: 0.8 mg/L (≈ 1.47 µM)
MIC [4]: 1.6 mg/L (≈ 2.93 µM)
MIC [5]: 0.1 mg/L (≈ 0.183 µM)
MIC [6, 27]: 0.4 mg/L (≈ 0.733 µM)
MIC [7, 28]: > 200 mg/L
MIC [8]: 1.6 mg/L (≈ 2.93 µM)
MIC [9]: 0.8 mg/L (≈ 1.47 µM)
MIC [10]: 0.4 mg/L (≈ 0.733 µM)
MIC [11, 29]: 6.3 mg/L (≈ 11.5 µM)
ED50 [12, 30]: 2 mg/kg
MIC [13, 31]: 200 mg/L (≈ 367 µM)
MIC [14, 32]: 1.6 mg/L (≈ 2.93 µM)
MIC ([15]; read-out: MIC in vitro): 0.4 mg/L (≈ 0.733 µM)
MIC [16, 33]: 3.1 mg/L (≈ 5.68 µM)
ED50 [17, 34]: > 50 mg/kg
ED50 [17, 35]: 1.32 mg/kg

O=C(Cn1cnnn1)NC1C(=O)N2C(C(=O)O)=C(CSc3nnnn3CS(=O)(=O)O)CSC12 (centres unmarked) [X, 7-(1-tetrazolylacetamido)-3-(1-sulfomethyltetrazol-5-ylthiomethyl)-3-cephem-4-carboxylic acid]
MIC ([1]; HH31254, read-out: MIC in vitro, Table 1): 0.8 mg/L (≈ 1.54 µM)
MIC [2, 25]: > 200 mg/L
MIC ([3]; Escherichia coli, SK12140, read-out: MIC in vitro, Table 1, E. coli SK 12140): 0.4 mg/L (≈ 0.771 µM)
MIC [4]: > 200 mg/L
MIC [5]: 1.6 mg/L (≈ 3.09 µM)
MIC [6, 27]: 1.6 mg/L (≈ 3.09 µM)
MIC [7, 28]: 200 mg/L (≈ 386 µM)
MIC [8]: 0.8 mg/L (≈ 1.54 µM)
MIC [9]: 0.4 mg/L (≈ 0.771 µM)
MIC [10]: 0.2 mg/L (≈ 0.386 µM)
MIC [11, 29]: 50 mg/L (≈ 96.4 µM)
ED50 [12, 30]: 0.64 mg/kg
MIC [13, 31]: 200 mg/L (≈ 386 µM)
MIC [14, 32]: 0.4 mg/L (≈ 0.771 µM)
MIC [15, 36]: 0.2 mg/L (≈ 0.386 µM)
MIC [16, 33]: 3.1 mg/L (≈ 5.98 µM)
ED50 [17, 34]: 50 mg/kg
ED50 [17, 35]: 1.56 mg/kg

Cc1nnc(SCC2=C(C(=O)O)N3C(=O)[C@@H](NC(=O)Cn4cnnn4)[C@H]3SC2)s1 [XIII, Cefazolin, reference compound]
MIC ([2]; Example 55 table, Pseudo. aeruginosa HH63): > 100 mg/L
MIC ([2]; Pseudomonas aeruginosa, Example 54 table, Pseudo. aeruginosa HH 63, read-out: MIC): > 100 mg/L
MIC [2, 25]: > 200 mg/L
MIC ([18]; Example 55 table): > 100 mg/L
MIC ([18]; Pseudomonas aeruginosa, Example 54 table, read-out: MIC): > 100 mg/L
MIC ([19]; Example 55 table): > 100 mg/L
MIC ([19]; Klebsiella pneumoniae, Example 54 table, read-out: MIC): > 100 mg/L
MIC ([3]; Escherichia coli, SK12140, Example 54 table, E. coli SK&F 12140, read-out: MIC): 0.8 mg/L (≈ 1.76 µM)
MIC [3, 26]: 0.8 mg/L (≈ 1.76 µM)
MIC ([3]; Example 55 table, E. coli SK&F 12140): 0.8 mg/L (≈ 1.76 µM)
MIC [5]: 0.2 mg/L (≈ 0.44 µM)
MIC ([6]; HH127, Example 54 table, Staph. aureus HH 127): 0.8 mg/L (≈ 1.76 µM)
MIC [6, 27]: 0.4 mg/L (≈ 0.88 µM)
MIC ([6]; Example 55 table, Staph. aureus HH127, read-out: MIC): 0.4 mg/L (≈ 0.88 µM)
MIC [7, 37]: > 100 mg/L
MIC ([7]; Example 55 table, read-out: MIC): > 100 mg/L
MIC [7, 28]: 200 mg/L (≈ 440 µM)
MIC [8]: 0.8 mg/L (≈ 1.76 µM)
MIC [9]: 0.8 mg/L (≈ 1.76 µM)
MIC ([11]; Example 54 table, Strep. faecalis HH 34358, read-out: MIC): 25 mg/L (≈ 55 µM)
MIC ([11]; Example 55 table, Strep. faecalis HH 34358, read-out: MIC): 12.5 mg/L (≈ 27.5 µM)
MIC [11, 29]: 6.3 mg/L (≈ 13.9 µM)
MIC [20, 37]: 3.1 mg/L (≈ 6.82 µM)
MIC ([20]; Example 55 table): 3.1 mg/L (≈ 6.82 µM)
MIC ([21]; Enterobacter cloacae, 921, Example 54 table): 25 mg/L (≈ 55 µM)
MIC ([21]; Enterobacter cloacae, 921, Example 55 table): 6.3 mg/L (≈ 13.9 µM)
MIC ([22]; Staphylococcus aureus, 674, Example 54 table): 0.4 mg/L (≈ 0.88 µM)
MIC ([22]; Staphylococcus aureus, 674, Example 55 table): 0.2 mg/L (≈ 0.44 µM)
ED50 ([12]; Example 54, s.c., K. pneumo. SKF 4200, read-out: ED50): 0.7 mg/kg
ED50 ([12]; Example 55, s.c., K. pneumo. SK&F 4200, read-out: ED50): 8.7 mg/kg
ED50 [12, 30]: 6.25 mg/kg
MIC ([13]; ATCC13880, Example 54 table, Serratia marcescens ATCC 13880, read-out: MIC): > 100 mg/L
MIC ([13]; ATCC13880, Example 55 table, Serratia marcescens ATCC 13880, read-out: MIC): > 100 mg/L
MIC [13, 31]: 200 mg/L (≈ 440 µM)
MIC ([23]; Staphylococcus aureus, 671, Example 55 table): 12.5 mg/L (≈ 27.5 µM)
MIC ([23]; Staphylococcus aureus, Example 54 table): 0.8 mg/L (≈ 1.76 µM)
MIC ([14]; Example 54 table, Kleb. pneumoniae SK&F 4200, read-out: MIC): 3.1 mg/L (≈ 6.82 µM)
MIC ([14]; Example 55 table, Kleb. pneumoniae SK&F 4200, read-out: MIC): 1.6 mg/L (≈ 3.52 µM)
MIC [14, 32]: 0.8 mg/L (≈ 1.76 µM)
MIC ([15]; Example 54 table, Kleb. pneumoniae SK&F 1200, read-out: MIC): 0.4 mg/L (≈ 0.88 µM)
MIC ([15]; Example 55 table, Kleb. pneumoniae SK&F 1200, read-out: MIC): 0.8 mg/L (≈ 1.76 µM)
MIC [15, 36]: 0.8 mg/L (≈ 1.76 µM)
MIC ([24]; Escherichia coli, Example 54 table, read-out: MIC): 100 mg/L (≈ 220 µM)
MIC ([24]; Example 55 table): 100 mg/L (≈ 220 µM)
MIC ([16]; ATCC13048, Example 54 table, Enterobacter aerogenes 13048, read-out: MIC): 3.1 mg/L (≈ 6.82 µM)
MIC ([16]; ATCC13048, Example 55 table, Enterobacter aerogenes 13048, read-out: MIC): 3.1 mg/L (≈ 6.82 µM)
MIC [16, 33]: 1.6 mg/L (≈ 3.52 µM)
ED50 ([17]; Escherichia coli, 12140, sc, Example 54, s.c., E. coli SKF 12140, read-out: ED50): 4.4 mg/kg
ED50 ([17]; Escherichia coli, 12140, sc, Example 55, s.c., E. coli SKF 12140, read-out: ED50): 3.12 mg/kg
ED50 [17, 35]: 4 mg/kg
